{"source": "paper PMC6269660", "about": "“Anti-Inflammatory Cycloartane-Type Saponins of Astragalus membranaceus” (Molecules, 2013)", "format_in_all_cases": "cell-based", "key": {"[1]": {"assay": "Cell viability by MTT reduction", "details": "mouse, at a concentration of 100 μM, RAW 264.7 cells, MTT reduction, mean ± SD of three independent experiments", "protocol": "(§1) Assays for NO production and cell viability were carried out as previously described. Briefly, RAW 264.7 macrophages were harvested and seeded in 24-well plates (3 × 10^5 cells/well) for the measurement of NO production. The plates were pretreated with various concentrations of samples for 1 h and incubated with LPS (1 μg/mL) for 7 h. The amount of NO was determined by the nitrite concentration in the cultured RAW264.7 macrophage supernatants using the Griess reagent. The cell viability was evaluated by MTT reduction."}, "RAW 264.7 macrophages": {"test_system": "RAW 264.7 macrophages", "assay": "Cell viability by MTT reduction", "details": "RAW 264.7 cells treated with compounds", "protocol": "as §1"}, "[2]": {"test_system": "LPS-induced NO production in RAW 264.7 macrophage cells", "assay": "Inhibition of LPS-induced NO production (nitrite, Griess reagent)", "details": "for inhibition of NO production (in words): LPS-induced RAW264.7 macrophages", "protocol": "Previous studies have already reported on the anti-inflammatory effects of components obtained from A. membranaceus. Thus, we also investigated the inhibitory effects of compounds 1–5 on NO production by using the Griess reaction to measure nitrite, a soluble oxidation product of NO, in the culture medium of LPS-induced RAW 264.7 macrophages.\nas §1"}}}
{"smiles": "CC(=O)O[C@@H]1[C@@H](O)[C@H](O[C@H]2CC[C@]34C[C@]35CC[C@]3(C)[C@@H]([C@@]6(C)CC[C@@H](C(C)(C)O)O6)[C@@H](O)C[C@@]3(C)[C@@H]5C[C@H](O[C@@H]3O[C@H](CO)[C@@H](O)[C@H](O)[C@H]3O)[C@H]4C2(C)C)OC[C@H]1O", "note": "[Compound 4, isoastragaloside II]", "values": [{"measurement": "viability at 8 h, 100 µM", "setting": "[1]; RAW 264.7 macrophages", "value": "69 ± 1.82", "unit": "%"}, {"measurement": "cell toxicity / influence on cell viability (in words)", "setting": "RAW 264.7 macrophages", "value": "Some cell toxicity was observed"}]}
{"smiles": "CC(=O)OC1C(OC2CCC34CC35CCC3(C)C(C(C)CCC(O)C(C)(C)O)C(O)CC3(C)C5CC(OC3OC(CO)C(O)C(O)C3O)C4C2(C)C)OCC(O)C1O", "note": "(centres unmarked) [Compound 3, agroastragaloside II]", "values": [{"measurement": "viability at 8 h, 100 µM", "setting": "[1]; RAW 264.7 macrophages", "value": "47.6 ± 3.4", "unit": "%"}, {"measurement": "cell toxicity / influence on cell viability (in words)", "setting": "RAW 264.7 macrophages", "value": "Some cell toxicity was observed"}]}
{"smiles": "CC(=O)OC1C(O)COC(OC2CCC34CC35CCC3(C)C(C(C)CCC(O)C(C)(C)O)C(O)CC3(C)C5CC(OC3OC(CO)C(O)C(O)C3O)C4C2(C)C)C1OC(C)=O", "note": "(centres unmarked) [Compound 2, agroastragaloside I]", "values": [{"measurement": "viability at 8 h, 100 µM", "setting": "[1]; RAW 264.7 macrophages", "value": "54.5 ± 1.21", "unit": "%"}, {"measurement": "cell toxicity / influence on cell viability (in words)", "setting": "RAW 264.7 macrophages", "value": "Some cell toxicity was observed"}]}
{"smiles": "O=C(O)/C=C/c1ccc(O)c(O)c1", "note": "[Caffeic acid, reference compound]", "values": [{"measurement": "IC50", "setting": "[2]; Mus musculus, RAW264.7, LPS-activated RAW 264.7 cells, pretreated 1 h with compounds, then LPS (1 μg/mL) for 7 h, mean ± SD of three independent experiments", "value": "830 ± 1150", "unit": "nM"}, {"measurement": "viability at 8 h, 100 µM", "setting": "[1]", "value": "82.2 ± 1.64", "unit": "%"}]}
{"smiles": "CC(=O)OC1C(OC2CCC34CC35CCC3(C)C(C(C)CCC(O)C(C)(C)O)CCC3(C)C5CC(OC3OC(CO)C(O)C(O)C3O)C4C2(C)C)OCC(O)C1O", "note": "[Compound 1, 3-O-β-(2'-O-acetyl)-D-xylopyranosyl-6-O-β-D-glucopyranosyl-(24S)-3β,6α,24α,25-tetrahydroxy-9,19-cyclolanostane]", "values": [{"measurement": "inhibition of NO production (in words)", "setting": "[2]", "value": "significant inhibition of NO production"}, {"measurement": "viability at 8 h, 100 µM", "setting": "[1]; RAW 264.7 macrophages", "value": "93.2 ± 6.96", "unit": "%"}, {"measurement": "cell toxicity / influence on cell viability (in words)", "setting": "RAW 264.7 macrophages", "value": "without cytotoxicity"}]}
{"smiles": "CC(C)(O)[C@@H]1CC[C@](C)([C@H]2[C@@H](O)C[C@@]3(C)[C@@H]4C[C@H](O[C@@H]5O[C@H](CO)[C@@H](O)[C@H](O)[C@H]5O)[C@H]5C(C)(C)[C@@H](O[C@@H]6OC[C@@H](O)[C@H](O)[C@H]6O)CC[C@@]56C[C@@]46CC[C@]23C)O1", "note": "[Compound 5, astragaloside IV]", "values": [{"measurement": "inhibition of NO production (in words)", "setting": "[2]", "value": "significant inhibition of NO production"}, {"measurement": "viability at 8 h, 100 µM", "setting": "[1]", "value": "94.4 ± 4.33", "unit": "%"}, {"measurement": "cell toxicity / influence on cell viability (in words)", "setting": "RAW 264.7 macrophages", "value": "without cytotoxicity"}]}
